Activity calls are given as the source filed them. The calls are words filed in the database; no cut-off is given here.
Columns and labels:
Mus musculus [1] = test: (§1) Protection against CTX-induced myelosuppression in BALB/c mouse assessed as improvement in hematopoiesis by measuring increase in colonies of megakaryocytes at 5 to 10 mg/kg, ip administered daily for 7 days starting from 3 days post-CTX challenge measured 24 hrs post-last dose by inverted microscopic method; format: functional, organism-based
[2] = Toxicity in BALB/c mouse assessed as effect on appearance of shiny hair at 5 to 10 mg/kg, ip administered daily for 7 days measured during compound dosing; format: organism-based; conditions: in vivo, 168 h
Mus musculus [3] = test: Protection against CTX-induced myelosuppression in BALB/c mouse assessed as effect on HGB level at 5 mg/kg, ip administered daily for 7 days starting from 3 days post-CTX challenge measured 24 hrs post-last dose (reference value: 113.2 +/- 6.66 g/L); format: functional
Mus musculus [4] = test: as §1, with “granulocyte macrophage” for “megakaryocytes”; format: functional, organism-based
[5] = Toxicity in BALB/c mouse assessed as behavioral changes at 5 to 10 mg/kg, ip administered daily for 7 days measured during compound dosing; format: organism-based; conditions: in vivo, 168 h
Mus musculus [6] = test: Protection against CTX-induced myelosuppression in BALB/c mouse assessed as improvement in immunity by measuring spleen index at 5 mg/kg, ip administered daily for 7 days starting from 3 days post-CTX challenge measured 24 hrs post-last dose (reference value: 8.94 +/- […]); format: functional
Mus musculus [7] = test: (§2) Protection against CTX-induced myelosuppression in BALB/c mouse assessed as improvement in hematopoiesis by decrease in erythropoietin level at 5 to 10 mg/kg, ip administered daily for 7 days starting from 3 days post-CTX challenge measured 24 hrs post-last dose by ELISA; format: functional, organism-based
Mus musculus [8] = test: Protection against CTX-induced myelosuppression in BALB/c mouse assessed as effect on HGB level at 10 mg/kg, ip administered daily for 7 days starting from 3 days post-CTX challenge measured 24 hrs post-last dose (reference value: 113.2 +/- 6.66 g/L); format: functional
Mus musculus [9] = test: Protection against CTX-induced myelosuppression in BALB/c mouse assessed as effect on WBC level at 10 mg/kg, ip administered daily for 7 days starting from 3 days post-CTX challenge measured 24 hrs post-last dose (reference value: 10.34 +/- 1.4 10^9/L); format: functional
Mus musculus [10] = test: Protection against CTX-induced myelosuppression in BALB/c mouse assessed as improvement in immunity by measuring spleen index at 10 mg/kg, ip administered daily for 7 days starting from 3 days post-CTX challenge measured 24 hrs post-last dose (reference value: 8.94 +/- […]); format: functional
Mus musculus [11] = test: Protection against CTX-induced myelosuppression in BALB/c mouse assessed as improvement in hematopoiesis by decrease in thrombopoietin level at 5 to 10 mg/kg, ip administered daily for 7 days starting from 3 days post-CTX challenge measured 24 hrs post-last dose by ELISA; format: functional, organism-based
Mus musculus [12] = test: Protection against CTX-induced toxicity in BALB/c mouse assessed as restoration of normal food intake at 5 to 10 mg/kg, ip administered daily for 7 days starting from 3 days post-CTX challenge and measured during compound dosing; format: functional, organism-based
[13] = Toxicity in BALB/c mouse assessed as change in appetite at 5 to 10 mg/kg, ip administered daily for 7 days measured during compound dosing; format: organism-based; conditions: in vivo, 168 h
Mus musculus [14] = test: as §2, with “granulocyte macrophage-colony stimulating factor” for “erythropoietin”; format: functional, organism-based
Mus musculus [15] = test: (§3) Protection against CTX-induced myelosuppression in BALB/c mouse assessed as change in hematopoietic progenitor cell cycle distribution by increase in accumulation at S-phase at 5 to 10 mg/kg, ip administered daily for 7 days starting from 3 days post-CTX challenge measured 24 hrs post-last dose by propidium iodide staining based flow cytometry; format: functional, organism-based
Mus musculus [16] = test: Protection against CTX-induced toxicity in BALB/c mouse assessed as loss of hematuria at 5 to 10 mg/kg, ip administered daily for 7 days starting from 3 days post-CTX challenge and measured during compound dosing; format: functional, organism-based
Mus musculus [17] = test: Protection against CTX-induced myelosuppression in BALB/c mouse assessed as effect on RBC level at 5 mg/kg, ip administered daily for 7 days starting from 3 days post-CTX challenge measured 24 hrs post-last dose (reference value: 8.63 +/- 0.68 10^12/L); format: functional
Mus musculus [18] = test: Protection against CTX-induced toxicity in BALB/c mouse assessed as loss of cool skin at 5 to 10 mg/kg, ip administered daily for 7 days starting from 3 days post-CTX challenge and measured during compound dosing; format: functional, organism-based
Mus musculus [19] = test: as §1, with “burst forming units” for “colonies”, “erythroid” for “megakaryocytes”; format: functional, organism-based
[20] = Toxicity in BALB/c mouse assessed as change in body temperature at 5 to 10 mg/kg, ip administered daily for 7 days measured during compound dosing; format: organism-based; conditions: in vivo, 168 h
Mus musculus [21] = test: Protection against CTX-induced toxicity in BALB/c mouse assessed as loss of depilation at 5 to 10 mg/kg, ip administered daily for 7 days starting from 3 days post-CTX challenge and measured during compound dosing; format: functional, organism-based
Mus musculus [22] = test: Protection against CTX-induced myelosuppression in BALB/c mouse assessed as effect on PLT level at 5 mg/kg, ip administered daily for 7 days starting from 3 days post-CTX challenge measured 24 hrs post-last dose (reference value: 628.5 +/- 66.09 10^9/L); format: functional
Mus musculus [23] = test: as §1, with “erythroid” for “megakaryocytes”; format: functional, organism-based
Mus musculus [24] = test: Protection against CTX-induced myelosuppression in BALB/c mouse assessed as upregulation of phosphorylated ERK expression at 5 to 10 mg/kg, ip administered daily for 7 days starting from 3 days post-CTX challenge measured 24 hrs post-last dose by Western blot analysis; format: functional, organism-based
Mus musculus [25] = test: as §1, with “bone marrow nucleated cells” for “colonies of megakaryocytes”; format: functional, organism-based
Mus musculus [26] = test: Protection against CTX-induced myelosuppression in BALB/c mouse assessed as effect on PLT level at 10 mg/kg, ip administered daily for 7 days starting from 3 days post-CTX challenge measured 24 hrs post-last dose (reference value: 628.5 +/- 66.09 10^9/L); format: functional
Mus musculus [27] = test: Protection against CTX-induced myelosuppression in BALB/c mouse assessed as effect on WBC level at 5 mg/kg, ip administered daily for 7 days starting from 3 days post-CTX challenge measured 24 hrs post-last dose (reference value: 10.34 +/- 1.4 10^9/L); format: functional
Mus musculus [28] = test: as §3, with “decrease” for “increase”, “G0/G1-phase” for “S-phase”; format: functional, organism-based
Mus musculus [29] = test: Protection against CTX-induced toxicity in BALB/c mouse assessed as loss of diarrhea at 5 to 10 mg/kg, ip administered daily for 7 days starting from 3 days post-CTX challenge and measured during compound dosing; format: functional, organism-based
Mus musculus [30] = test: Protection against CTX-induced toxicity in BALB/c mouse assessed as restoration of normal body weight at 5 to 10 mg/kg, ip administered daily for 7 days starting from 3 days post-CTX challenge and measured during compound dosing; format: functional, organism-based
Mus musculus [31] = test: Protection against CTX-induced myelosuppression in BALB/c mouse assessed as upregulation of MEK expression at 5 to 10 mg/kg, ip administered daily for 7 days starting from 3 days post-CTX challenge measured 24 hrs post-last dose by Western blot analysis; format: functional, organism-based
Mus musculus [32] = test: Protection against CTX-induced myelosuppression in BALB/c mouse assessed as effect on RBC level at 10 mg/kg, ip administered daily for 7 days starting from 3 days post-CTX challenge measured 24 hrs post-last dose (reference value: 8.63 +/- 0.68 10^12/L); format: functional
Mus musculus [33] = test: as §3, with “G2/M-phase” for “S-phase”; format: functional, organism-based

COc1ccc(C[C@H]2COC(=O)[C@@H]2Cc2ccc(OC(=O)[C@@H](N)C(C)C)c(OC)c2)cc1OC
Activity (Mus musculus [1]): Active
Activity [2]: Non-Toxic
Activity (Mus musculus [3]): 120 g/L
Activity (Mus musculus [4]): Active
Activity [5]: Non-Toxic
Activity index (Mus musculus [6]): 8.66 mg/g
Activity (Mus musculus [7]): Active
Activity (Mus musculus [8]): 125.5 g/L
Activity (Mus musculus [9]): 8.65 ×10⁹ /L
Activity index (Mus musculus [10]): 8.47 mg/g
Activity (Mus musculus [11]): Active
Activity (Mus musculus [12]): Active
Activity [13]: Non-Toxic
Activity (Mus musculus [14]): Active
Activity (Mus musculus [15]): Active
Activity (Mus musculus [16]): Active
Activity (Mus musculus [17]): 8.8 ×10¹² /L
Activity (Mus musculus [18]): Active
Activity (Mus musculus [19]): Active
Activity [20]: Non-Toxic
Activity (Mus musculus [21]): Active
Activity (Mus musculus [22]): 796 ×10⁹ /L
Activity (Mus musculus [23]): Active
Activity (Mus musculus [24]): Active
Activity (Mus musculus [25]): Active
Activity (Mus musculus [26]): 848 ×10⁹ /L
Activity (Mus musculus [27]): 9.29 ×10⁹ /L
Activity (Mus musculus [28]): Active
Activity (Mus musculus [29]): Active
Activity (Mus musculus [30]): Active
Activity (Mus musculus [31]): Active
Activity (Mus musculus [32]): 9.24 ×10¹² /L
Activity (Mus musculus [33]): Active

Source: ChEMBL document CHEMBL4340519, “The effects of Arctigenin-Valine ester on chemotherapy-induced myelosuppression in mice” (Bioorg Med Chem, 2019)
